Test results as given in patent US20080160019A1, “SEQUENTIAL COMBINATION THERAPY” (DYAX CORP., priority 2006, published 2008).

Key:
tumor vasculature = assay: Lectin staining of tumors (tumor vasculature, Example 5); format: in vivo, nude mice (nu/nu); details: for lectin staining, High intensity (3+) / lectin staining, Low intensity (1+) / lectin staining, Medium intensity (2+): 20 mg/kg IP Q2D from day 1, BxPC3 tumors; as to lectin staining, High intensity (3+): unit not given here; as to lectin staining, Low intensity (1+): unit not given here; as to lectin staining, Medium intensity (2+): unit not given here
Experimental: To determine changes in tumor vasculature, three animals from each of groups 1 and 2 were randomly selected for destructive sample collection, including tumor and serum on days 5, 10, 15, and 20. Animals were injected IV with 150 μL of a biotinylated-lectin solution (no injections on day 5 and 15). Five minutes later, animals were perfused by intracardiac injection with a 1% paraformaldehyde solution in PBS for 3 minutes. Tumors were then collected, placed in the perfusion solution, and sent immediately for analysis. Blood was collected by cardiac puncture and serum extracted, flash frozen in liquid nitrogen, and stored at −80° C.

[1] = test system: BxPC3 (human pancreatic cancer cell line) tumor; assay: Pancreatic cancer xenograft model, tumor size by calipers (Example 3); format: in vivo, nude mice (nu/nu); details: for calculated tumor growth rate, After Avastin / calculated tumor growth rate, Before Avastin (Day 21) / calculated tumor growth rate, Before Avastin (Day 10): DX-2240 or control IgG 20 mg/kg IP Q2d from day 1; for calculated tumor growth rate, Before Avastin (Day 21): before bevacizumab (twenty day pretreatment groups); for calculated tumor growth rate, Before Avastin (Day 10): before bevacizumab start at day 10; for tumor size as compared to control: as single agents; as to calculated tumor growth rate, After Avastin: unit not given here; as to calculated tumor growth rate, Before Avastin (Day 10): unit not given here; as to calculated tumor growth rate, Before Avastin (Day 21): unit not given here
Experimental: The antitumor activity of combinations of DX-2240 and bevacizumab (anti-VEGF antibody) or sorafenib (multi-kinase inhibitor) were tested in a human tumor xenograft model. BxPC3 (human pancreatic cancer cell line) tumor fragments harvested from host nude mice (nu/nu) bearing subcutaneous BxPC-3 tumors were implanted subcutaneously into female nude mice (study animals) and allowed to form tumors. Mice were pair matched by tumor size and randomized into the various treatment groups when the tumors reached approximately 100 mm^3 (about 18 days following tumor implantation). The animals were assorted into the treatment groups shown in Table 1 (“Start” refers to the day on which treatment was begun). DX-2240 was administered by intraperitoneal (IP) injection at 20 mg/kg; bevacizumab was administered by IP injection at 10 mg/kg, sorafenib was administered orally at 60 mg/kg (for a total of 9 doses), and the control IgG (palivizumab, an antibody of the same isotype as DX-2240) was administered by IP injection at 20 mg/kg at the indicated dosing start dates and dosing regimens. An additional positive control group (group 13) was included: these animals were dosed with gemcitabine at 40 mg/kg Q3d for a total of four doses.
Tumor size was evaluated every three to four days using calipers.

Tie1 = Tie1 (Homo sapiens, UniProt P35590); details: cited from earlier work
[2] = test system: DU 145 human prostate tumor model; assay: DU 145 prostate tumor model, mean tumor volume (Example 6); format: in vivo, nude mice (nu/nu); details: 20 mg/kg IP Q2D x17 from day 1
Experimental: Male nude mice (nu/nu) were injected subcutaneously with DU 145 cells harvested from tissue culture (˜1×10^7 cells/mouse). When tumors grew to approximately 95 mm^3 in size (about 7 days following injection), animals were pair-matched by tumor size into treatment and control groups.
Treatment was initiated after the animals were paired-matched (day 1). Animals in control and treatment groups were dosed by weight (10 ml/kg). DX-2240 and the control IgG (palivizumab) were administered by IP injection either once every other day for seventeen treatments beginning day 1 or once every four days for nine treatments beginning day 1. Sorafenib was dosed per os via gavage once daily for nine treatments beginning day 15. To serve as a control, the control IgG was administered every other day for seventeen treatments beginning day 1. Individual and group mean tumor volumes were recorded twice weekly from day 1 until day 57.

[3] = test system: BxPC-3 human pancreas cancer model; assay: BxPC-3 pancreas cancer model, dosing schedules, mean tumor volume (Example 5); format: in vivo, nude mice (nu/nu); details: 20 mg/kg IP Q2D x10 from day 1, implanted tumor fragments
Experimental: Female nude mice (nu/nu) were divided into 14 groups. Animals in groups 1-12 were implanted subcutaneously by trocar with BxPC3 tumor fragments harvested from growing tumors in nude mice hosts. Mice in groups 13-14 were injected subcutaneously with approximately 1×10^7 BxPC-3 cells from tissue culture. When injected tumors grew to approximately 104 mm^3 in size (about 19 days following implantation) and implanted tumors grew to approximately 110 mm^3 in size (about 22 days following implantation) animals were pair-matched by tumor size into treatment and control groups. Animals from groups 1 and 2 were used to evaluate tumor vasculature. Animals from groups 13 and 14 were used to compare effects of DX-2240 on tumors formed from cell injection.
Treatment was initiated after the animals were pair-matched (day 1). Animals in all groups were dosed by weight (10 ml/kg). The control IgG and DX-2240 were administered by IP injection at 20 mg/kg, and bevacizumab and the rat α-mouse VEGF IgG antibody were administered by IP injection at 10 mg/kg once every three days. Dosing was initiated on day −3, 1, 5, 6, 10 or 20.
Individual and group mean tumor volumes were recorded twice weekly from day 1 until day 39.

[4] = after bevacizumab 10 mg/kg IP Q3d (twenty day pretreatment groups)
[5] = after bevacizumab 10 mg/kg IP Q3d started at day 10
[6] = DX-2240 or control IgG from day 1, bevacizumab (Avastin) after twenty day pretreatment
[7] = DX-2240 or control IgG from day 1, bevacizumab (Avastin) from day 10
[8] = day 1, 20 mg/kg IP Q2d from day 1
[9] = day 3, 20 mg/kg IP Q2d from day 1
[10] = day 7, 20 mg/kg IP Q2d from day 1
[11] = day 10, 20 mg/kg IP Q2d from day 1
[12] = day 14, 20 mg/kg IP Q2d from day 1
[13] = day 21, 20 mg/kg IP Q2d from day 1
[14] = day 24, 20 mg/kg IP Q2d from day 1
[15] = day 28, 20 mg/kg IP Q2d from day 1
[16] = day 31, 20 mg/kg IP Q2d from day 1

Tie1, sequence (P35590 22-1138): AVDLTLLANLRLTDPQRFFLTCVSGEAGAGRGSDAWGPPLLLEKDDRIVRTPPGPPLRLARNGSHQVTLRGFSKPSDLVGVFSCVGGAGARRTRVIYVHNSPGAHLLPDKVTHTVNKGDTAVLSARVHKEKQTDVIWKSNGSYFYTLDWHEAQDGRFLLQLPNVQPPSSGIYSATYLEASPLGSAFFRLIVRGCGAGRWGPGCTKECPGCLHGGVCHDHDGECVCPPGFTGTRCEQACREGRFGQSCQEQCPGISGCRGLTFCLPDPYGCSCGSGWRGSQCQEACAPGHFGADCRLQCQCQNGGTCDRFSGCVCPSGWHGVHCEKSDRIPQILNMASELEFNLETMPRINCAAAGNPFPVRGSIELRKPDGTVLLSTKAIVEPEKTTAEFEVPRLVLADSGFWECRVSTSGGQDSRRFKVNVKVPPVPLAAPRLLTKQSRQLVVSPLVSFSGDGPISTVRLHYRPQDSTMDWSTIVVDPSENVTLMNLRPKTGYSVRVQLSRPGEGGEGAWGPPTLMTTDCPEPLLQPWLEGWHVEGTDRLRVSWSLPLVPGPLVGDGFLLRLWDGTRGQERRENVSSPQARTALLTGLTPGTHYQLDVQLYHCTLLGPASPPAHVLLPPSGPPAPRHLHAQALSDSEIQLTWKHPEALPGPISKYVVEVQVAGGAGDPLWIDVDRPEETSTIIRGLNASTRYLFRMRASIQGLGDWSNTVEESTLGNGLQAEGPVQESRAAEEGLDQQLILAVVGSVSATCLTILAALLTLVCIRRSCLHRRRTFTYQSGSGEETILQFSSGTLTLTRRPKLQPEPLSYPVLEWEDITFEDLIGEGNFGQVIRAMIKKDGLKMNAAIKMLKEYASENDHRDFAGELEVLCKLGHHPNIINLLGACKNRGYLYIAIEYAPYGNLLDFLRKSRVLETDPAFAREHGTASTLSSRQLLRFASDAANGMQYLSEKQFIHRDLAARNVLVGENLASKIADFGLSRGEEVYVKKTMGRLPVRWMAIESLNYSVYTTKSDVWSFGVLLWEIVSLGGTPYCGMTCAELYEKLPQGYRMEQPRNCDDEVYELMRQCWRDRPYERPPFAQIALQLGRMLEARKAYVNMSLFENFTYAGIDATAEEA

With “DX-2240: Germlined F allotyped E3 antibody, Tie1 ectodomain-binding (SEQ ID NO:10-13)” the “lectin staining of tumors as compared to control animals” value (tumor vasculature; DX-2240 20 mg/kg IP Q2D) was “less lectin staining”, the functional tumor vasculature (tumor vasculature; DX-2240-treated animals) was “less functional tumor vasculature” and the “lectin staining, High intensity (3+)” value (tumor vasculature; Day 10) was 92134. The “lectin staining, Low intensity (1+)” value (tumor vasculature; Day 10) was 909706, the “lectin staining, Medium intensity (2+)” value (tumor vasculature; Day 10) was 3468512 and the “lectin staining, High intensity (3+)” value (tumor vasculature; Day 20) was 5922. For the same compound, the “lectin staining, Low intensity (1+)” value (tumor vasculature; Day 20) was 122022, the “lectin staining, Medium intensity (2+)” value (tumor vasculature; Day 20) was 205406 and the “calculated tumor growth rate, After Avastin” value [1, 4] was 18.6 ± 8.0. For the same compound, the “calculated tumor growth rate, After Avastin” value [1, 5] was 12.2 ± 3.3, the “calculated tumor growth rate, Before Avastin (Day 21)” value [1] was 23.1 ± 6.6 and the “calculated tumor growth rate, Before Avastin (Day 10)” value [1] was 23.9 ± 4.9. The “# of stable tumor growths or tumor regressions” value [1, 6] was 2/8, the “# of stable tumor growths or tumor regressions” value [1, 7] was 1/6 and the “tumor size as compared to control” value [1] was “reduced tumor size”. It also gave a Tumor volume [1, 8] of 105.6 mm^3, a Tumor volume [1, 9] of 139.9 mm^3 and a Tumor volume [1, 10] of 223.1 mm^3. It also gave a Tumor volume [1, 11] of 331.6 mm^3, a Tumor volume [1, 12] of 460.5 mm^3 and a Tumor volume [1, 13] of 724.4 mm^3. It also gave a Tumor volume [1, 14] of 954.1 mm^3, a Tumor volume [1, 15] of 1171.1 mm^3 and a Tumor volume [1, 16] of 1351.4 mm^3. The Tie1 tyrosine phosphorylation (Tie1) was “induce”, the Tie complex formation (Tie1) was “induce” and the “down modulation of Tie1 from the cell surface” value (Tie1) was “induce”. The “Tie1/Tie2 heterodimers on the surface of cells expressing Tie1 and Tie2” value (Tie1; e.g., endothelial cells) was “down-modulation”, the mean tumor volume ([2]; day 1) was 94.6 mm^3 and the mean tumor volume ([2]; day 5) was 162.6 mm^3. For the same compound, the mean tumor volume ([2]; day 9) was 269.3 mm^3, the mean tumor volume ([2]; day 13) was 417.3 mm^3 and the mean tumor volume ([2]; day 15) was 460.0 mm^3. For the same compound, the mean tumor volume ([2]; day 19) was 553.9 mm^3, the mean tumor volume ([2]; day 23) was 644.4 mm^3 and the mean tumor volume ([2]; day 26) was 707.1 mm^3. The mean tumor volume ([2]; day 29) was 737.8 mm^3, the mean tumor volume ([2]; day 33) was 866.7 mm^3 and the mean tumor volume ([2]; day 36) was 1008.3 mm^3. It also gave a mean tumor volume ([3]; day 1) of 107.7 mm^3, a mean tumor volume ([3]; day 4) of 157.7 mm^3 and a mean tumor volume ([3]; day 8) of 194.2 mm^3. It also gave a mean tumor volume ([3]; day 11) of 199.0 mm^3, a mean tumor volume ([3]; day 15) of 308.7 mm^3 and a mean tumor volume ([3]; day 18) of 289.1 mm^3.

With `CNC(=O)c1cc(Oc2ccc(NC(=O)Nc3ccc(Cl)c(C(F)(F)F)c3)cc2)ccn1` [sorafenib] the “tumor size as compared to control” value [1] was “reduced tumor size”.

In the case of `Nc1ccn([C@@H]2O[C@H](CO)[C@@H](O)C2(F)F)c(=O)n1` [gemcitabine], the Tumor volume ([1]; day 1, 40 mg/kg Q3d, four doses (positive control group 13)) is reported as 106.5 mm^3, the Tumor volume ([1]; day 3, 40 mg/kg Q3d, four doses (positive control group 13)) is reported as 144.1 mm^3 and the Tumor volume ([1]; day 7, 40 mg/kg Q3d, four doses (positive control group 13)) is reported as 214.9 mm^3. The Tumor volume ([1]; day 10, 40 mg/kg Q3d, four doses (positive control group 13)) was 280.8 mm^3, the Tumor volume ([1]; day 14, 40 mg/kg Q3d, four doses (positive control group 13)) was 347.7 mm^3 and the Tumor volume ([1]; day 21, 40 mg/kg Q3d, four doses (positive control group 13)) was 686.1 mm^3. The Tumor volume ([1]; day 24, 40 mg/kg Q3d, four doses (positive control group 13)) was 848.1 mm^3, the Tumor volume ([1]; day 28, 40 mg/kg Q3d, four doses (positive control group 13)) was 1084.8 mm^3 and the Tumor volume ([1]; day 31, 40 mg/kg Q3d, four doses (positive control group 13)) was 1325.2 mm^3.

In the case of “Control IgG: palivizumab, an antibody of the same isotype as DX-2240 [reference compound]”, the “lectin staining, High intensity (3+)” value (tumor vasculature; Day 10) is reported as 19242, the “lectin staining, Low intensity (1+)” value (tumor vasculature; Day 10) is reported as 1214685 and the “lectin staining, Medium intensity (2+)” value (tumor vasculature; Day 10) is reported as 3148400. For the same compound, the “lectin staining, High intensity (3+)” value (tumor vasculature; Day 20) was 7824, the “lectin staining, Low intensity (1+)” value (tumor vasculature; Day 20) was 222879 and the “lectin staining, Medium intensity (2+)” value (tumor vasculature; Day 20) was 272402. For the same compound, the “calculated tumor growth rate, After Avastin” value [1, 4] was 23.8 ± 8.6, the “calculated tumor growth rate, After Avastin” value [1, 5] was 33.3 ± 6.6 and the “calculated tumor growth rate, Before Avastin (Day 21)” value [1] was 28.3 ± 5.2. The “calculated tumor growth rate, Before Avastin (Day 10)” value [1] was 41.1 ± 9.0, the “# of stable tumor growths or tumor regressions” value [1, 6] was 1/8 and the “# of stable tumor growths or tumor regressions” value [1, 7] was 0/8. The Tumor volume [1, 8] was 106.9 mm^3, the Tumor volume [1, 9] was 164.7 mm^3 and the Tumor volume [1, 10] was 293.2 mm^3. For the same compound, the Tumor volume [1, 11] was 366.4 mm^3, the Tumor volume [1, 12] was 521.8 mm^3 and the Tumor volume [1, 13] was 907.5 mm^3. It also gave a Tumor volume [1, 14] of 1062.0 mm^3, a Tumor volume [1, 15] of 1354.0 mm^3 and a Tumor volume [1, 16] of 1669.1 mm^3. It also gave a mean tumor volume ([2]; day 1) of 94.9 mm^3, a mean tumor volume ([2]; day 5) of 125.7 mm^3 and a mean tumor volume ([2]; day 9) of 195.1 mm^3. The mean tumor volume ([2]; day 13) was 293.5 mm^3, the mean tumor volume ([2]; day 15) was 320.9 mm^3 and the mean tumor volume ([2]; day 19) was 400.7 mm^3. For the same compound, the mean tumor volume ([2]; day 23) was 417.8 mm^3, the mean tumor volume ([2]; day 26) was 487.6 mm^3 and the mean tumor volume ([2]; day 29) was 450.5 mm^3. The mean tumor volume ([2]; day 33) was 501.1 mm^3, the mean tumor volume ([2]; day 36) was 529.3 mm^3 and the mean tumor volume ([3]; day 1) was 107.6 mm^3. It also gave a mean tumor volume ([3]; day 4) of 180.1 mm^3, a mean tumor volume ([3]; day 8) of 237.7 mm^3 and a mean tumor volume ([3]; day 11) of 249.9 mm^3. It also gave a mean tumor volume ([3]; day 15) of 355.9 mm^3 and a mean tumor volume ([3]; day 18) of 300.0 mm^3.
